Results: ChEMBL document CHEMBL5537110, “SIRT1-dependent mitochondrial biogenesis supports therapeutic effects of 4-butyl-polyhydroxybenzophenone compounds against NAFLD” (Eur J Med Chem, 2023)
Calls of active or inactive are those of the source. No cut-off for these calls is given here.

Experiments:
Rattus norvegicus [1] = assay: Hepatoprotective activity against high fat diet-fed NAFLD Sprague-Dawley rat model assessed as decrease in liver index administered intragastrically via gavage for 4 weeks; assay type: functional, organism-based; details: dose 12.3-61.4 mg/kg, route ig
HepG2 [2] = assay: Recovery of mitochondrial biogenesis in 40% FBS-induced steatosis human HepG2 cells model assessed as increase in NRF1 mRNA expression incubated for 24 hrs by qRT-PCR analysis; assay type: functional, cell-based; details: dose 0.2-5 µM
HepG2 [3] = assay: Induction of mitochondrial biogenesis in human HepG2 cells assessed as TFAM mRNA expression incubated for 24 hrs in presence of SIRT1 inhibitor, EX527 by qRT-PCR analysis; assay type: functional, cell-based
[4] = target: T1, NAD-dependent protein deacetylase sirtuin-1 (Homo sapiens) (UniProt Q96EB6); assay: Binding affinity to SIRT1 in human HepG2 cells assessed as increase in protein abundance at 80 to 320 uM pretreated with compound for 30 mins followed by proteolysis for 15 mins by DARTS assay; assay type: cell-based; details: filed as activator, dose 80-320 µM, time 45.0 min
T1 sequence (whole entry): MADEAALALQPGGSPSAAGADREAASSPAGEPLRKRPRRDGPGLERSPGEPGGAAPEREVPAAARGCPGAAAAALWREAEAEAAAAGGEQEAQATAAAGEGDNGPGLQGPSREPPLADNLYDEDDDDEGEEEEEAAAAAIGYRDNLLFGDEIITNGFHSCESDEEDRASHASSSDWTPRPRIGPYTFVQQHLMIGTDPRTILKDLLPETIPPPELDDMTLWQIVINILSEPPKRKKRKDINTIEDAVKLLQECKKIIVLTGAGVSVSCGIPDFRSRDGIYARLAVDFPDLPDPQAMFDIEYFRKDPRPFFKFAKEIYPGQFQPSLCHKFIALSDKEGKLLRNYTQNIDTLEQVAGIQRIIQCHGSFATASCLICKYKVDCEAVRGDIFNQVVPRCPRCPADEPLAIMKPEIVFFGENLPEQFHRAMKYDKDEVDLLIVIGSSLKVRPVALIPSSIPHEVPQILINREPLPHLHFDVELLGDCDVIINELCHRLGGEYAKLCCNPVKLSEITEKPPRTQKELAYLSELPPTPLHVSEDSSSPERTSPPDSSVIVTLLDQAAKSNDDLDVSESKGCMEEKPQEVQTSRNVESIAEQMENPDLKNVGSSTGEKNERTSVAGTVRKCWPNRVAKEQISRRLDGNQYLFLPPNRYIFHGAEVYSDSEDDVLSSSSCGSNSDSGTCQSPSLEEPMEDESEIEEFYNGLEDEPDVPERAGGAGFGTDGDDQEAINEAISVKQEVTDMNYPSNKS

HepG2 [5] = assay: Inhibition of liver injury in 40% FBS-induced steatosis human HepG2 cells model assessed as decrease in LDH level at 0.2 to 5 uM incubated with compound for 24 hrs followed by replacement with steatosis inducing DMEM with 40% FBS medium; assay type: functional, cell-based; details: dose 0.2-5 µM
HepG2 [6] = assay: Inhibition of liver injury in 40% FBS-induced steatosis human HepG2 cells model assessed as decrease in AST level at 0.2 to 5 uM incubated in steatosis inducing DMEM with 40% FBS medium for 24 hrs followed by compound treatment; assay type: functional, cell-based; details: dose 0.2-5 µM
HepG2 [7] = assay: Inhibition of liver injury in 40% FBS-induced steatosis human HepG2 cells model assessed as decrease in GDH level at 0.2 to 5 uM incubated in steatosis inducing DMEM with 40% FBS medium for 24 hrs followed by compound treatment; assay type: functional, cell-based; details: dose 0.2-5 µM
HepG2 [8] = assay: Recovery of mitochondrial biogenesis in 40% FBS-induced steatosis human HepG2 cells model assessed as increase in mitochondrial COX1 mRNA expression incubated for 24 hrs by qRT-PCR analysis; assay type: functional, cell-based; details: dose 0.2-5 µM
HepG2 [9] = assay: Inhibition of liver injury in 40% FBS-induced steatosis human HepG2 cells model assessed as decrease in AST level at 0.2 to 5 uM incubated with compound for 24 hrs followed by replacement with steatosis inducing DMEM with 40% FBS medium; assay type: functional, cell-based; details: dose 0.2-5 µM
Rattus norvegicus [10] = assay: Hepatoprotective activity against high fat diet-fed NAFLD Sprague-Dawley rat model assessed as decrease in serum AKP level administered intragastrically via gavage for 4 weeks; assay type: functional, organism-based; details: dose 12.3-61.4 mg/kg, route ig
HepG2 [11] = assay: Inhibition of liver injury in 40% FBS-induced steatosis human HepG2 cells model assessed as decrease in ALT level at 0.2 to 5 uM incubated in steatosis inducing DMEM with 40% FBS medium for 24 hrs followed by compound treatment; assay type: functional, cell-based; details: dose 0.2-5 µM
HepG2 [12] = assay: Induction of mitochondrial biogenesis in human HepG2 cells assessed as mitochondrial COX1 mRNA expression incubated for 24 hrs in presence of SIRT1 inhibitor, EX527 by qRT-PCR analysis; assay type: functional, cell-based
HepG2 [13] = assay: Recovery of mitochondrial biogenesis in 40% FBS-induced steatosis human HepG2 cells model assessed as increase in SIRT1 mRNA expression incubated for 24 hrs by qRT-PCR analysis; assay type: functional, cell-based; details: dose 0.2-5 µM
HepG2 [14] = assay: Recovery of mitochondrial biogenesis in 40% FBS-induced steatosis human HepG2 cells model assessed as increase in TFAM protein expression incubated for 24 hrs by western blot analysis; assay type: functional, cell-based; details: dose 0.2-5 µM
[15] = target: T2, Peroxisome proliferator-activated receptor gamma coactivator 1-alpha (Homo sapiens) (UniProt Q9UBK2); assay: Binding affinity to PGC1alpha in human HepG2 cells assessed as increase in thermal stabilization of protein at 320 uM pretreated with compound for 30 mins followed by incubation at 40 to 65 degC for 3 mins by CETSA-WB analysis; assay type: cell-based; details: filed as activator, time 33.0 min
T2 sequence (whole entry): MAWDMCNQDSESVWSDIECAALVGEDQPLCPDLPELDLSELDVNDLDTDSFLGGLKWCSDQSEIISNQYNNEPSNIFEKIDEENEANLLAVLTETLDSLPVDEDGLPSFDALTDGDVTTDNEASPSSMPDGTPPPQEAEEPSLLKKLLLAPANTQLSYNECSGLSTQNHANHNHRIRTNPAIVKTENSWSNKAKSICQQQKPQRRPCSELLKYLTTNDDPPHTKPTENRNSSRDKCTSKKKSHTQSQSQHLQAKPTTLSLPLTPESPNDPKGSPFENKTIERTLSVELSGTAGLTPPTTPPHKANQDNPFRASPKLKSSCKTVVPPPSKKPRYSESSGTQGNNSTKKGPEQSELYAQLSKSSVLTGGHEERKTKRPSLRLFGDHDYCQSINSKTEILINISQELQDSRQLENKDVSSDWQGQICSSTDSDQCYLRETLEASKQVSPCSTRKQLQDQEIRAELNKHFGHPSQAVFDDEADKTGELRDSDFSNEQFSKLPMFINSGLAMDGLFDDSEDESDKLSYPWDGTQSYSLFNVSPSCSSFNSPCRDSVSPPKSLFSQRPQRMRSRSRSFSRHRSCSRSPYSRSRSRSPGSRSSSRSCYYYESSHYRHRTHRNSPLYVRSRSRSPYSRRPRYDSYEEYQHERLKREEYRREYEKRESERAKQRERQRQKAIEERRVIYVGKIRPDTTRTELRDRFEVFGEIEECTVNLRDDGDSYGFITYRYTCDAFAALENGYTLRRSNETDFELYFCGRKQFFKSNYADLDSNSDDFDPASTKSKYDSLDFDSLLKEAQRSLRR

Rattus norvegicus [16] = assay: Hepatoprotective activity against high fat diet-fed NAFLD Sprague-Dawley rat model assessed as decrease in serum gamma-GT level administered intragastrically via gavage for 4 weeks; assay type: functional, organism-based; details: dose 12.3-61.4 mg/kg, route ig

CC(C)(C)c1ccc(C(=O)c2ccc(O)c(O)c2)cc1
Activity (Rattus norvegicus [1]): Dose-Dependent Effect
Activity (HepG2 [2]): Dose-Dependent Effect
Activity (HepG2 [3]): inactive
Activity [4]: Active
inhibition (HepG2 [5]): Active
inhibition (HepG2 [6]): Active
inhibition (HepG2 [7]): Active
Activity (HepG2 [8]): Dose-Dependent Effect
inhibition (HepG2 [9]): Active
Activity (Rattus norvegicus [10]): Active
inhibition (HepG2 [11]): Active
Activity (HepG2 [12]): inactive
Activity (HepG2 [13]): Dose-Dependent Effect
Activity (HepG2 [14]): Dose-Dependent Effect
Activity [15]: Active
Activity (Rattus norvegicus [16]): Active
